Measured values taken from US8758833B2, “Cosmetic composition for the treatment of acne comprising a peptide extract of Schisandra” (Laboratoires Expanscience, priority 2009, dated 2014).

Experiments:
[1] = test system: IL-1α released by keratinocytes; experiment: Assay of IL-1α released by PMA-stimulated keratinocytes (ELISA); format: cell-based
Procedure: (§1) Keratinocytes were seeded in 24-well plates in KGM2 medium. After 24 hours of incubation, the cells were pretreated with Schisandra peptides for 24 hours. Next, the cells were stimulated by adding […] PMA (phorbol 12-myristate 13-acetate, Sigma) for 24 hours.
(§2) After the treatment, the cell supernatants were collected and IL-1α and VEGF were assayed using ELISA kits (R&D Systems) according to the manufacturer's instructions.
(§3) An MTT (IL-1α) or neutral red (VEGF) test was carried out on the cell layers: OD, proportional to the quantity of living cells, is read at 570 nm (MTT) or 540 nm (red neutral).
(§4) The quantities of IL-1α and VEGF are expressed in pg/ml/OD570 and pg/ml/OD540, respectively.

[2] = test system: VEGF in keratinocytes; experiment: Assay of VEGF in PMA-stimulated keratinocytes (ELISA); format: cell-based; conditions: Positive control (PMA) alone; non-stimulated control 208.166
Procedure: as §1, §2, §3, §4

Row | Compound | release of IL-1α induced by stimulation (% vs unstimulated) ([1]; keratinocytes stimulated by PMA for 24 hours) | Average VEGF [2] | inhibition at 0.1 µM ([1]; Keratinocyte, pretreatment with 10^−7 M dexamethasone, keratinocytes stimulated by PMA 24 hours, read-out: inhibition of the IL-1α release induced by PMA)
1 | CCCCCCCCCCCCCC(=O)O[C@@H]1[C@@H](C)[C@@]2(O)[C@@H](C=C(CO)C[C@]3(O)C(=O)C(C)=C[C@@H]23)[C@@H]2C(C)(C)[C@]12OC(C)=O [PMA, phorbol 12-myristate 13-acetate] | +123% | 767.941 pg/mL | –
2 | C[C@@H]1C[C@H]2[C@@H]3CCC4=CC(=O)C=C[C@]4(C)[C@@]3(F)[C@@H](O)C[C@]2(C)[C@@]1(O)C(=O)CO [dexamethasone] | – | – | 100%
